These results are taken from patent US12617770B2, “IRAK inhibitor and preparation method therefor and use thereof” (WUHAN CREATERNA SCIENCE AND TECHNOLOGY CO., LTD., priority 2019, dated 2026).

One data set addresses T1, human IRAK4 (Homo sapiens, UniProt Q9NWZ3).
T1 construct: purchased Cama (so in the source)
T1 sequence (Q9NWZ3 1-460): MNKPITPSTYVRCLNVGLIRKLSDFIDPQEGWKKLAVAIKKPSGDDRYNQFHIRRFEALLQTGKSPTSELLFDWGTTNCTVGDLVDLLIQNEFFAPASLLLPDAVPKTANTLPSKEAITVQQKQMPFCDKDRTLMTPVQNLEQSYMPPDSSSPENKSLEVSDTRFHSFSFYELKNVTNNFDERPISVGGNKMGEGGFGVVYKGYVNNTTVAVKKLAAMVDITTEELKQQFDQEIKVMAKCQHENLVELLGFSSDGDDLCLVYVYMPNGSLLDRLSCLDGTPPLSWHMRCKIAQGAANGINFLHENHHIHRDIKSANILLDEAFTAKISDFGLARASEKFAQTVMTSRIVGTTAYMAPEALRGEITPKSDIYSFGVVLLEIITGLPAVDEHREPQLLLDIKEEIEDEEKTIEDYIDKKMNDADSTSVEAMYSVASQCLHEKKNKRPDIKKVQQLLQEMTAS
Nature of the data set: IRAK4 MSA (Mobility-Shift Assay) at Km concentration of ATP. It is filed as biochemical. The following applies: GST-IRAK4 1 nM, ATP 37 μM (Km); read-out: IC50 for inhibiting human IRAK4 activity. The protocol: A recombinant fusion protein of N-terminal GST (glutathione-S-transferase) and human IRAK4 was used as enzyme (GST-IRAK4, kinase IRAK4 (Cama, CAT No. 09-145)) at a final concentration of 1 nM; ATP (Sigma. CAT No. A7699-1G) was at a final concentration of 37 μM; • the substrates used for the kinase reaction were 5-FAM (5-carboxyfluorescein)-labeled polypeptide (5-FAM-[…]-COOH) and substrate peptide FAM-P8 (GL Biochem, CAT No. 112396) at final concentrations of 5 μM.
In this assay, 500 μM stock solutions of the compounds were prepared in 100% DMSO, and serially 4-fold diluted to the 10th concentration gradient with 100% DMSO, followed by a 10-fold dilution in the compound buffer (50 mM HEPES, pH 7.5, 0.00015% Brij-35) to give intermediate dilutions of the compounds at a final concentration of 10 μM−0.04 nM containing 10% DMSO. 5 μL of the intermediate dilution was transferred into a black 384-well plate.
IRAK4 was diluted to 2.5 nM in the kinase buffer (50 mM HEPES, pH 7.5, 0.00015% Brij-35, 2 mM DTT). 10 μL of the IRAK4 dilution was transferred to the 384-well plate and co-incubated with the compound for 10-15 min.
The substrate and ATP were diluted to 12.5 μM and 92.5 μM with reaction buffer (50 mM HEPES, pH 7.5, 0.00015% Brij-35, 10 mM MgCl2), respectively. 10 μL of the dilution was transferred to a 384-well plate and incubated at 28° C. for 1 h. The reaction was terminated by adding 25 μL of 50 mM EDTA to the 384-well plate.
The inhibition rate of IRAK4 by the compounds was calculated by measuring the rate of phosphorylated substrate using a Caliper EZ Reader (PerkinElmer) and the IC50 was calculated by XL-fit software. […] In particular, some exemplary compound activity values are as follows: […]

For data set [1], the target named is T2, hERG potassium ion channel (Homo sapiens, UniProt Q12809).
T2 construct: expressed in transfected cells; host or cells: HEK-293
Nature of the data set: hERG whole-cell patch clamp in HEK-293 cell line stably expressing hERG. Format: cell-based. The following applies: HEK-293 cells stably expressing hERG, pH 7.4, HEK-293 cells expressing hERG, mean ± spread. The procedure:
The working solutions of the test compounds were ultrasonically treated for 20 min.
Patch clamping: Under an inverted microscope, recording electrodes were controlled by micromanipulator to contact with the cell. A negative voltage was applied to create a G-omega shaped connection. After forming the G-omega shaped connection, a rapid capacitance compensation was given. Under the continuous negative voltage, the cell membrane was ruptured to form a whole-cell recording configuration. In the whole-cell recording configuration, slow capacitance compensation was given, and the values of membrane capacitance and series resistance were recorded. […]
The cover glasses planted with cells were placed in the recording chamber of an inverted microscope. […] The current detected in a cell in the negative control was used as the background for the cell. […]
[formula] Basic statistics were calculated for each concentration, including mean, standard deviation (SD), standard error (SE), and replicates (n). The dose-dependent curve was fitted with the following equation and the half maximal inhibitory concentration (IC50) of the test compounds was calculated: […]
(The hERG channel carries a current that helps repolarise heart muscle cells.)

Data set [2] in a line: Pharmacokinetic study, single oral gavage dosing. Particulars: mouse, 40 mg/kg, 40 mpk, 15% solutol HS15 + 85% PBS, ICR mice, plasma; for AUC(0-t): read-out: Area under curve AUC0-t; for AUC(0-inf): read-out: Area under curve AUC0-∞; for MRT: read-out: Average retention time MRT; for half-life: read-out: Half life t1/2 (converted); for Cmax: read-out: Peak concentration Cmax; for Tmax: read-out: Time to peak tmax. It is filed as in vivo.

For orientation: IC50 means the midpoint of a concentration-inhibition curve. A word on the inhibition: it is the percentage by which the read-out fell short of the control. A word on the MRT: it is a mean duration of stay, worked out from the concentration-time curve. For orientation: Tmax means the time from dosing to the highest level.

T2 sequence (Q12809 whole entry): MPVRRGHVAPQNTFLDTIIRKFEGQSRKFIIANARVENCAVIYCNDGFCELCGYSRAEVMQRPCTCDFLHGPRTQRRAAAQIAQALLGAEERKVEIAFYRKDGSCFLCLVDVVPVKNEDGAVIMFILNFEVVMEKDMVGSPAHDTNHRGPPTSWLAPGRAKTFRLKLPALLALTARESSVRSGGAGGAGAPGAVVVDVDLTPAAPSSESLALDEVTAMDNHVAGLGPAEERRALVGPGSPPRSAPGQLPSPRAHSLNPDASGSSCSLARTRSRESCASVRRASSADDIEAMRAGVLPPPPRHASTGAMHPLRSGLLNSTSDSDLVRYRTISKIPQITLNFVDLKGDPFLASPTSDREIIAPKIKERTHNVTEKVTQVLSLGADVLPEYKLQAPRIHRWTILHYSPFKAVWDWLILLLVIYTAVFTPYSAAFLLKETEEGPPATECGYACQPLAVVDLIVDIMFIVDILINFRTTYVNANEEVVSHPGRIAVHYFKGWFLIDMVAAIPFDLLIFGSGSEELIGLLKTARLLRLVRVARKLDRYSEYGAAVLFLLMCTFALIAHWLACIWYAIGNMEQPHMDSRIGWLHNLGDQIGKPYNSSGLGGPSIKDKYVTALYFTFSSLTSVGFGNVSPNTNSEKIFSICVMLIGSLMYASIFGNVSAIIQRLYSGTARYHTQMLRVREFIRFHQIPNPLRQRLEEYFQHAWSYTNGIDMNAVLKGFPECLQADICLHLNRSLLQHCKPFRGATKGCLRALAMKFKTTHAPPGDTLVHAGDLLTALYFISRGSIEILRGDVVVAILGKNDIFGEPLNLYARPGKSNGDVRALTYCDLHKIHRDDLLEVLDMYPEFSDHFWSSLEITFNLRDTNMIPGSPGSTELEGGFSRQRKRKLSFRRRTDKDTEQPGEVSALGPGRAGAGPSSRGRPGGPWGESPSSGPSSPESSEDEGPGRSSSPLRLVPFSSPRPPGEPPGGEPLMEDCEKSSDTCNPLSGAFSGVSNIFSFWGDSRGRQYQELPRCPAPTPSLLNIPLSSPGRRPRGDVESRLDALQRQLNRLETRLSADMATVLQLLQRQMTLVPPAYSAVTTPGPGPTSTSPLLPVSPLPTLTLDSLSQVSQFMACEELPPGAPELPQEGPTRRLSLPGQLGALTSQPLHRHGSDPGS

On to `COc1cc2nn([C@H]3CC[C@](C)(O)CC3)cc2cc1NC(=O)c1cccc(C)[n+]1[O-]` [Compound 001, 2-((2-((1r,4r)-4-hydroxy-4-methylcyclohexyl)-6-methoxy-2H-indazol-5-yl)carbamoyl)-6-methylpyridine 1-oxide], for which, at human IRAK4, the IC50 amounted to 6 nM. Moreover, the inhibition at 5 min, 30 µM in data set [1] came out at 5.09%. Moreover, in data set [2], the AUC(0-t) turned out to be 294 µg·h/mL, the AUC(0-inf) was 375 µg·h/mL, the mean residence time MRT stood at 15.3 h and the half-life is 11.5 h. Besides, in data set [2], the Cmax stood at 24200 ng/mL and the time of peak concentration (Tmax) came to 4 h.

With `COc1cc2nn(CCC(C)(C)O)cc2cc1NC(=O)c1cccc(C)[n+]1[O-]` [Compound 163, 2-((2-(3-hydroxy-3-methylbutyl)-6-methoxy-2H-indazol-5-yl)carbamoyl)-6-methylpyridine 1-oxide], the IC50 on human IRAK4 is 23 nM. In data set [1], this compound registered an inhibition at 5 min, 30 µM of 8.73%. Further, in data set [2], the AUC(0-t) was 207 µg·h/mL, the AUC(0-inf) was 207 µg·h/mL, the mean residence time MRT turned out to be 6.75 h and the half-life is 3.62 h. For the same compound, in data set [2], the Cmax turned out to be 25900 ng/mL and the Tmax worked out at 4 h.
